Data from patent US5849731A, “Indole derivatives and medical application thereof” (Toray Industries, Inc., priority 1995, dated 1998).
Where two headings read alike, the source gives them in different places.

Columns and labels:
[1] = target: T1, δ-opioid (Mus musculus, UniProt P32300); assay: δ-opioid agonism: inhibition of electrically stimulated mouse vas deferens (MVD) contraction, antagonism by NTI; format: biochemical, mouse (male ddy strain); set-up: Ke: unit not given here; details: for Ke: against NTI added 20 minutes before, Ke=[NTI Concentration]/[(IC50 ratio)-1]
T1 construct: Each of the vas deferens isolated from the mice was hung in a Magnus tube; from tissue; host or cells: isolated vas deferens of male ddy strain mice
T1 sequence (P32300 whole entry): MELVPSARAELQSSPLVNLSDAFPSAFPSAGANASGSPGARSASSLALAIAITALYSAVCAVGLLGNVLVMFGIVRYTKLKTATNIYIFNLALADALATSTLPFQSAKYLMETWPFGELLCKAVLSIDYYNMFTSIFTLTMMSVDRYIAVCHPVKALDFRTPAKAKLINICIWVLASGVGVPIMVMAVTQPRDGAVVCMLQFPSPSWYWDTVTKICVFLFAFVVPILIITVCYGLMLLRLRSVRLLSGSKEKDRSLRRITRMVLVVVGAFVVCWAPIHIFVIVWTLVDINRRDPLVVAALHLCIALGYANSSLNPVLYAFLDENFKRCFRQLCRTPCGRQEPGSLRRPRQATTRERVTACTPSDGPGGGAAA
Procedure: (§1) Using mouse vas deferens (MVD), antagonistic compounds were examined for antagonism against a δ-opioid agonist DPDPE, and agonistic compounds were examined for inhibitory activity against MVD contraction by electric stimulation, and for antagonism by a δ-opioid antagonist NTI.
(§2) Male ddy strain mice were used in this experiment. Each of the vas deferens isolated from the mice was hung in a Magnus tube which was filled with a Krebes-Henseleit solution (NaCl […]; KCl 4.7 mM; CaCl2 2.5 mM; KH2 PO4 1.1 mM; NaHCO3 25 mM; glucose 11 mM), and aerated with a gas of 5% carbon dioxide and 95% oxygen and maintained at 37° C. Electric stimulation was applied through upper and lower ring-shaped platinum electrodes at 0.1 Hz and 5.0 mS. Tissue contraction was recorded on a polygraph using an isometric transducer.
Initially, a sample compound was added in a cumulative manner to determine the IC50 value (concentration for 50% inhibition of contraction induced by electric stimulation). Next, […] was added to the system beforehand, and 20 minutes later, the sample compound was added in a cumulative manner. According to the above procedure, the ratio of the IC50 values of the sample compound in the presence of NTI to that in the absence of NTI was determined, and the Ke value was calculated in accordance with the following equation.
Ke=[NTI Concentration]/[(IC50 ratio)-1]

[2] = target: T1, δ-opioid; assay: δ-opioid antagonism against DPDPE in mouse vas deferens (MVD); format: biochemical, mouse (male ddy strain); details: for pA2: MVD, 100 nM sample compound added 20 minutes before cumulative DPDPE, Schild method
Procedure: as §1, §2
Initially, DPDPE was added in a cumulative manner to determine the IC50 value (concentration for 50% inhibition of contraction induced by electric stimulation). Next, 100 nM of a sample compound was added to the system beforehand, and 20 minutes later, DPDPE was added in a cumulative manner. According to the above procedure, the ratio of the IC50 value of DPDPE in the presence of the sample compound to that in the absence of it was determined, and the pA2 value was calculated in accordance with the Schild, et al.'s method [Schild, H. O., Br. J. Pharamacol. Chamother. 4, 277 (1949)].

[3] = system: capsaicin-induced cough; assay: Antitussive action in rat, capsaicin-induced cough; format: in vivo; details: ip, 0.5 h, dosage for 50% cough inhibition, intraperitoneal, 10% DMSO solution, 30 minutes after administration
Procedure: Evaluation of Antitussive Action in Rat as a Model for Capsaicin-Induced Cough
Cough was induced by forcing rats to inhale capsaicin (60 μM) which was nebulized by an ultrasonic nebulizer, and fed to caps over the rats' heads through silicone tubes by a respirator. Capsaicin was fed for inhalation at a rate of 70 times/min. and 10 ml each time.
Two hundred and seventy minutes before the drug administration, capsaicin was inhaled for 5 minutes, and inducement of coughing was confirmed during this period. Thirty minutes after the drug administration, capsaicin was inhaled for 5 minutes, and the number of induced coughs during capsaicin inhalation was counted. Antitussive effect was evaluated by determining an inhibitory ratio, namely, the ratio of the number of coughs after the drug administration to that before the drug administration. Capsaicin was dissolved in saline. Each drug was dissolved in a 10% DMSO solution and intraperitoneally administered. The effect of the drug is expressed with an ED50 value which is the dosage for 50% cough inhibition

[4] = system: acetic acid writhing; assay: Analgesic action, acetic acid writhing test in mouse; format: in vivo, mouse (ddY strain); details: sc, dorsal-subcutaneous, 15 minutes before acetic acid, writhing reactions over 10 minutes
Procedure: Evaluation of Analgesic Action by Acetic Acid Writhing Test in Mouse
Five-week-old ddY strain mice were subjected to this experiment. A 0.6% acetic acid solution was intraperitoneally administered at a volume of 0.1 ml/10 g·.body weight. Analgesic activity was evaluated with an index which was the number of writhing reactions occurring over 10 minutes from 10 minutes after administration. The drug to be evaluated was dorsal-subcutaneously administered 15 minutes before the administration of acetic acid.

SMILES | Ke [1] | Kb [2] [nM] | ED50 [3] [µg/kg] | other results
CN1CC[C@]23c4c5ccc(O)c4O[C@H]2c2c(c4cccc6c4n2CCC6)C[C@@]3(O)[C@H]1C5 [Compound 55, 17-Methyl-6,7-didehydro-4,5α-epoxy-3,14β-dihydroxy-1',7'-trimethylene-6,7,2',3'-indolomorphinan] | 0.21 |  |  | IC50 [1]: 18.2 nM
Oc1ccc2c3c1O[C@H]1c4c(c5cc(F)cc6c5n4CCC6)C[C@@]4(O)[C@@H](C2)N(CC2CC2)CC[C@]314 [Compound 10, 17-cyclopropylmethyl-6,7-didehydro-4,5α-epoxy-3,14β-dihydroxy-1',7'-trimethylene-5'-fluoro-6,7,2',3'-indolomorphinan] |  | 1.58 | 15.7 | 
Oc1ccc2c3c1O[C@H]1c4c(c5cccc6c5n4CCC6)C[C@@]4(O)[C@@H](C2)N(CCc2ccccc2)CC[C@]314 [Compound 57, 17-phenethyl-6,7-didehydro-4,5α-epoxy-3,14β-dihydroxy-1',7'-trimethylene-6,7,2',3'-indolomorphinan] | 0.06 |  |  | IC50 ([1]; concentration for 50% inhibition of MVD contraction induced by electric stimulation): 9.71 nM
COc1ccc2c3c(n4c2c1CCC4)[C@@H]1Oc2c(O)ccc4c2[C@@]12CCN(CC1CC1)[C@H](C4)[C@]2(O)C3 [Compound 6, 17-cyclopropylmethyl-6,7-didehydro-4,5α-epoxy-3,14β-dihydroxy-1',7'-trimethylene-6'-methoxy-6,7,2',3'-indolomorphinan] |  | 3.16 | 9.43 | 
Oc1ccc2c3c1O[C@H]1c4c(c5cccc6c5n4CCC6)C[C@@]4(O)[C@@H](C2)N(CC2CCC2)CC[C@]314 [Compound 56, 17-cyclobutylmethyl-6,7-didehydro-4,5α-epoxy-3,14β-dihydroxy-1',7'-trimethylene-6,7,2',3'-indolomorphinan] | 6.21 |  |  | IC50 [1]: 2.96 nM
Oc1ccc2c3c1O[C@H]1c4c(c5cccc6c5n4CCCC6)C[C@@]4(O)[C@@H](C2)N(CC2CC2)CC[C@]314 [Compound 9, 17-cyclopropylmethyl-6,7-didehydro-4,5α-epoxy-3,14β-dihydroxy-1',7'-tetramethylene-6,7,2',3'-indolomorphinan] |  |  | 12.2 | pA2 [2]: 8.5
COc1ccc2c3c1O[C@H]1c4c(c5cccc6c5n4CCC6)C[C@@]4(O)[C@@H](C2)N(CC2CC2)CC[C@]314 [Compound 11, 17-Cyclopropylmethyl-6,7-didehydro-4,5α-epoxy-3-methoxy-14β-hydroxy-1',7'-trimethylene-6,7,2',3'-indolomorphinan] |  |  | 3.43 | pA2 [2]: 8.2
Oc1ccc2c3c1O[C@H]1c4c(c5cccc6c5n4CCC6)C[C@@]4(O)[C@@H](C2)N(CC2CC2)CC[C@]314 [Compound 4, 17-cyclopropylmethyl-6,7-didehydro-4,5α-epoxy-3,14β-dihydroxy-1',7'-trimethylene-6,7,2',3'-indolomorphinan] |  | 0.398 | 8.58 | 
Oc1ccc2c3c1O[C@H]1c4c(c5cccc6c5n4CCC6)C[C@@]4(O)[C@@H](C2)N(CCc2cccs2)CC[C@]314 [Compound 65, 17-(thiophene-2-ylethyl)-6,7-didehydro-4,5α-epoxy-3,14β-dihydroxy-1',7'-trimethylene-6,7,2',3'-indolomorphinan] | 0.03 |  |  | IC50 [1]: 33.9 nM
Oc1ccc2c3c1O[C@H]1c4c(c5cccc6c5n4CC6)C[C@@]4(O)[C@@H](C2)N(CC2CC2)CC[C@]314 [Compound 1, 17-Cyclopropylmethyl-6,7-didehydro-4,5α-epoxy-3,14β-dihydroxy-1',7'-ethylene-6,7,2',3'-indolomorphinan] |  |  | 9.14 | pA2 [2]: 9.2
Oc1ccc2c3c1O[C@H]1c4c(c5cccc6c5n4Cc4ccccc4-6)C[C@@]4(O)[C@@H](C2)N(CC2CC2)CC[C@]314 [Compound 3, 17-cyclopropylmethyl-6,7-didehydro-4,5α-epoxy-3,14β-dihydroxy-1',7'-(2",3"-benzotrimethylene)-6,7,2',3'-indolomorphinan] |  | 2.51 | 4.37 | 
C=CCCN1CC[C@]23c4c5ccc(O)c4O[C@H]2c2c(c4cccc6c4n2CCC6)C[C@@]3(O)[C@H]1C5 [Compound 28, 17-(3-butenyl)-6,7-didehydro-4,5α-epoxy-3,14β-dihydroxy-1',7'-trimethylene-6,7,2',3'-indolomorphinan] | 0.05 |  |  | IC50 [1]: 15.8 nM; ED50 [4]: 16700 µg/kg
Cc1ccc2c3c1c1c(n3CCC2)[C@@H]2Oc3c(O)ccc4c3[C@@]23CCN(CC2CC2)[C@H](C4)[C@]3(O)C1 [Compound 5, 17-cyclopropylmethyl-6,7-didehydro-4,5α-epoxy-3,14β-dihydroxy-1',7'-trimethylene-4'-methyl-6,7,2',3'-indolomorphinan] |  | 5.01 | 20.8 | 
Oc1ccc2c3c1O[C@H]1c4c(c5ccc6cccc7c6c5n4CC7)C[C@@]4(O)[C@@H](C2)N(CC2CC2)CC[C@]314 [Compound 2, 17-cyclopropylmethyl-6,7-didehydro-4,5α-epoxy-3,14β-dihydroxy-1',3"-ethylene-6',7'-benzo-6,7,2',3'-indolomorphinan] |  | 2 | 1.71 | 
